These results are taken from patent US10577362B2, “Substituted 2, 4-diamino-quinoline derivatives for use in the treatment of proliferative diseases” (GENOSCIENCE PHARMA, priority 2016, dated 2020).

Counter-ions that a name gives are not always drawn.

For orientation: viability means a read-out of living cells in per cent, often relative to untreated cells. A word on the EC50: it is the midpoint of the concentration-response curve.

Common to all, as to type: cell-based, human
Experiment [1] concerns HepG2 (hepatocellular carcinoma) cell line. In words: CellTiter-Glo luminescent cell viability assay, HepG2. Particulars: Homo sapiens; for viability at 4 µM / viability at 10 µM: HepG2, HepG, 72 h; for viability at 4 µM: compound at 4 μM; for viability at 10 µM: compound at 10 μM; for EC50: HepG2 cell line, 72 h incubation, CellTiter-Glo, read-out: EC50, growth inhibition of HepG2. In short, it runs like this:
(§1)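 Adherent cells grow overnight, or suspension cells are seeded 1 h ahead; compound dilutions are then added and plates incubated 72 h at 37 °C. After 30 min at room temperature, CellTiter-Glo reagent is added and luminescence recorded. EC50 derives from signal relative to diluent control.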
For orientation: Cellular ATP, detected with luciferase, serves as a proxy for viable cell number.

For experiment [2], the system named is A375 (malignant melanoma) cell line. The experiment in a line: CellTiter-Glo luminescent cell viability assay, A375. Conditions: Homo sapiens, A-375; for viability at 4 µM: A375, compound at 4 μM; for viability at 4 µM / viability at 10 µM: 72 h; for viability at 10 µM: A375, compound at 10 μM; for EC50: A375 cell line, 72 h incubation, CellTiter-Glo, read-out: EC50, growth inhibition of A375. In short, it runs like this:
(§2)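 Cells were cultured at 37 °C, 5% CO2 with 10% FBS; adherent lines were plated overnight, suspension MOLM-14 plated 1 h before dosing. Compounds in H2O or DMSO were added at various concentrations for 72 h, and viability was read by luminescence. EC50 is the dose reducing signal to 50% of diluent control.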

Experiment [3] concerns Huh7 (hepatocellular carcinoma) cell line. In words: CellTiter-Glo luminescent cell viability assay, Huh7. Conditions: Homo sapiens, Huh-7; for viability at 4 µM: Huh7, compound at 4 μM; for viability at 4 µM / viability at 10 µM: 72 h; for viability at 10 µM: Huh7, compound at 10 μM; for EC50: Huh7 cell line, 72 h incubation, CellTiter-Glo, read-out: EC50, growth inhibition of Huh7. An outline of the steps:
as §1

Experiment [4] concerns MOLM-14 (acute myeloid leukemia) cell line. In words: CellTiter-Glo luminescent cell viability assay, MOLM-14. Particulars: Homo sapiens; for viability at 4 µM: MOLM-14, compound at 4 μM; for viability at 4 µM / viability at 10 µM: 72 h; for viability at 10 µM: MOLM-14, compound at 10 μM; for EC50: MOLM-14 cell line, 72 h incubation, CellTiter-Glo, read-out: EC50, growth inhibition of MOLM-14. In short, it runs like this:
as §1

In experiment [5] the test system is HCT-116 (colorectal carcinoma) cell line. The experiment in a line: CellTiter-Glo luminescent cell viability assay, HCT-116. Particulars: Homo sapiens; for viability at 4 µM: HCT-116, compound at 4 μM; for viability at 4 µM / viability at 10 µM: 72 h; for viability at 10 µM: HCT-116, compound at 10 μM; for EC50: HCT-116 cell line, 72 h incubation, CellTiter-Glo, read-out: EC50, growth inhibition of HCT-116. In short, it runs like this: as §2

The subject of experiment [6] is 786-O (renal adenocarcinoma) cell line. In words: CellTiter-Glo luminescent cell viability assay, 786-O. Particulars: Homo sapiens, 786-0; for viability at 4 µM / viability at 10 µM: 786-O, 72 h; for viability at 4 µM: compound at 4 μM; for viability at 10 µM: compound at 10 μM; for EC50: 786-O cell line, 72 h incubation, CellTiter-Glo, read-out: EC50, growth inhibition of 786-O. In short, it runs like this:
as §2

In the case of `CC(C)(C)NC1CCN(c2c(C#N)c(Nc3ccc(OC(F)(F)F)cc3)nc3ccccc23)CC1` [Compound 3266CN, 2-[4-(trifluoromethyloxy)phenylamino]-3-cyano-4-[4-(tert-butylamino)piperidin-1-yl]quinoline], the viability at 4 µM in experiment [1] amounted to 60.6%; in experiment [2], 48.1%; in experiment [3] it was 78%; in experiment [4], 91.4%; in experiment [5] it was 17.7%; in experiment [6] it was 28.1%. Further, the viability at 10 µM in experiment [1] was determined as 24.9%; in experiment [2] it was 21.1%; in experiment [3], 49.1%; in experiment [4], 50.3%; in experiment [5], 4.7%; in experiment [6], 3.8%.
On to `Cc1cc(Nc2nc3ccccc3c(N3CCC(NC(C)(C)C)CC3)c2C#N)ccc1Nc1nccc(C(F)(F)F)n1` [Compound 534CN, 2-[3-methyl-4-(4-trifluoromethylpyrimidin-2-ylamino)phenylamino]-3-cyano-4-(4-tert-butylaminopiperidin-1-yl)quinoline], for which the viability at 4 µM came to 13% in experiment [1]; 0.4% in experiment [2]; 49.1% in experiment [3]; 0.4% in experiment [4]; 0.4% in experiment [5]; 2.1% in experiment [6]. The viability at 10 µM is 0.2% in experiment [1]; 0.2% in experiment [2]; 0.4% in experiment [3]; 0.3% in experiment [4]; 0.2% in experiment [5]; 0.2% in experiment [6].
Regarding `Cc1cc(Nc2nc3ccccc3c(N3CCC(NC(C)(C)C)CC3)c2C#N)ccc1Nc1ccnc(-c2cccnc2)n1` [Compound 522CN, 2-{3-methyl-4-[2-(pyridin-3-yl)pyrimidin-4-ylamino]phenylamino}-3-cyano-4-(4-tert-butylaminopiperidin-1-yl)quinoline], the viability at 4 µM is 0.3% in experiment [1]; 0.3% in experiment [2]; 0.4% in experiment [3]; 0.3% in experiment [4]; 0.3% in experiment [5]; 0.2% in experiment [6]. The viability at 10 µM came to 0.2% in experiment [1]; 0.3% in experiment [2]; 0.4% in experiment [3]; 0.3% in experiment [4]; 0.2% in experiment [5]; 0.2% in experiment [6].
Turning to `Clc1ccc(CNc2cc(N3CCC(Oc4ccccc4)CC3)c3ccccc3n2)cc1` [Compound 2940, 2-(4-chlorobenzylamino)-4-(4-phenoxypiperidin-1-yl)-quinoline hydrochloride], the EC50 in experiment [1] fell in the range of 0.5 to 5 µM; in experiment [2] it was 5 to 10 µM; in experiment [3], 5 to 10 µM; in experiment [4], 0.5 to 5 µM; in experiment [5], 0.5 to 5 µM; in experiment [6], 0.5 to 5 µM.
With `Clc1ccc(CNc2cc(N3CC(N4CCCC4)C3)c3ccccc3n2)cc1` [Compound 116, 2-(4-chlorobenzylamino)-4-[3-(pyrrolidin-1-yl)azetidin-1-yl]quinoline hydrochloride], the EC50 in experiment [1], in experiment [2], in experiment [3], in experiment [4], in experiment [5] and in experiment [6] was 0.5 to 5 µM in each case.
As to `Cc1nccnc1OC1CCCN(c2c(C#N)c(NCc3ccc(Cl)cc3)nc3ccccc23)C1` (stereo not drawn) [Compound 3328CN, 2-(4-chlorobenzylamino)-3-cyano-4-{3-[(3-methylpyrazin-2-yl)oxy]piperidin-1-yl}quinoline], the viability at 4 µM came out at 98.8% in experiment [1]; 92.7% in experiment [2]; 125% in experiment [3]; 105% in experiment [4]; 93.2% in experiment [5]; 93.8% in experiment [6]. Also, the viability at 10 µM in experiment [1] worked out at 90.8%; in experiment [2], 87.3%; in experiment [3], 104%; in experiment [4], 95.4%; in experiment [5], 82.3%; in experiment [6], 85.5%.
On to `N#Cc1c(NCc2ccc(Cl)cc2)nc2ccccc2c1N1CCC(Oc2ccc(Cl)cc2)CC1` [Compound 3226CN, 2-(4-chlorobenzylamino)-3-cyano-4-[4-(4-chlorophenoxy)piperidin-1-yl]quinoline], for which the viability at 4 µM in experiment [1] was 94%; in experiment [2] it was 97.8%; in experiment [3], 117%; in experiment [4], 101%; in experiment [5], 96.8%; in experiment [6] it was 96%. Further, the viability at 10 µM in experiment [1] was found to be 82.8%; in experiment [2], 94.1%; in experiment [3] it was 109%; in experiment [4], 97.8%; in experiment [5], 86.8%; in experiment [6] it was 89.8%.
For the molecule `CC(C)N(Cc1ccc(Cl)cc1)c1cc(N2CCC(NC(C)(C)C)CC2)c2ccccc2n1` [Compound 216, 2-(N-4-chlorobenzyl-N-isopropylamino)-4-[4-(tert-butylamino)-piperidin-1-yl]-quinoline hydrochloride], the viability at 4 µM in experiment [1] was 30.4%; in experiment [2], 78.1%; in experiment [3], 74.1%; in experiment [4] it was 86.7%; in experiment [5], 15.5%; in experiment [6] it was 78.4%. Moreover, the viability at 10 µM in experiment [1] is 0.4%; in experiment [2] it was 0.4%; in experiment [3] it was 0.5%; in experiment [4], 0.5%; in experiment [5] it was 0.3%; in experiment [6], 0.5%.
Consider `CCN(Cc1ccc(Cl)cc1)c1cc(N2CCC(NC(C)(C)C)CC2)c2ccccc2n1` [Compound 214, 2-(N-4-chlorobenzyl-N-ethylamino)-4-[4-(tert-butylamino)-piperidin-1-yl]-quinoline hydrochloride], for which the viability at 4 µM in experiment [1] came to 0.3%; in experiment [2], 0.4%; in experiment [3], 43%; in experiment [4], 26.8%; in experiment [5], 0.2%; in experiment [6] it was 6.5%. For the same molecule, the viability at 10 µM in experiment [1] came to 0.4%; in experiment [2], 0.4%; in experiment [3], 0.4%; in experiment [4], 16.4%; in experiment [5], 0.3%; in experiment [6], 0.4%.
For `Cc1c(NCc2ccc(Cl)cc2)nc2ccccc2c1N1CCC(NC(C)(C)C)CC1` [Compound 350, 2-(4-chlorobenzylamino)-3-methyl-4-[4-(tert-butylamino)piperidin-1-yl]quinoline], the EC50 lay in the range of 0.5 to 5 µM in experiment [1]; 0.5 to 5 µM in experiment [2]; 5 to 10 µM in experiment [3]; 5 to 10 µM in experiment [4]; 0.5 to 5 µM in experiment [5]; 0.5 to 5 µM in experiment [6].
Consider `Clc1ccc(CNc2cc(N3CCC(Oc4ccncc4)CC3)c3ccccc3n2)cc1` [Compound 2950, 2-(4-chlorobenzylamino)-4-[4-(pyridin-4-yloxy)piperidin-1-yl]quinoline hydrochloride], for which the EC50 in experiment [1], in experiment [2], in experiment [3], in experiment [4], in experiment [5] and in experiment [6] was 0.5 to 5 µM in each case.
